Assays:
[1] = test system: thymidylate synthase (TS); test: Western blot of protein expression in BTC cells; assay type: cell-based; settings: 48 hours
Description: The effect of binimetinib, 5-fluorouracil (5-FU), or combination of these drugs on cell viability was evaluated using eight BTC cell lines (SNU245, SNU308, SNU478, SNU869, SNU1079, SNU1196, TFK1, and HuCCT1). As capecitabine is converted to 5-FU in vivo, 5-FU was used as an […] of oral administration of capecitabine in this preclinical study in cell lines. […] Subsequently, cell viability was measured at 540 nm with a Multiskan GO microplate reader using a commercially available MTT assay, according to the manufacturer's directions. The Chou-Talalay method was used to assess a combination effect. […] Actin was included as a loading control.

[2] = test system: advanced or metastatic BTC; settings: binimetinib monotherapy, advanced or metastatic BTC patients; cited from earlier work
[3] = test system: BTC cell lines (SNU245, SNU308, SNU478, SNU869, SNU1079, SNU1196, TFK1, and HuCCT1); test: MTT cell viability assay; assay type: cell-based; settings: eight BTC cell lines, 72 hours exposure
Description: (§1) The effect of binimetinib, 5-fluorouracil (5-FU), or combination of these drugs on cell viability was evaluated using eight BTC cell lines (SNU245, SNU308, SNU478, SNU869, SNU1079, SNU1196, TFK1, and HuCCT1). As capecitabine is converted to 5-FU in vivo, 5-FU was used as an […] of oral administration of capecitabine in this preclinical study in cell lines. In brief, confluent monolayers, which had been grown in 96 well plates, were exposed to drugs for 72 hours. Subsequently, cell viability was measured at 540 nm with a Multiskan GO microplate reader using a commercially available MTT assay, according to the manufacturer's directions. The Chou-Talalay method was used to assess a combination effect. Cells were also treated with drugs for 48 hours and the expression of thymidylate synthase (TS), programmed death-ligand 1 (PD-L1), and β-actin was determined using western blot analysis according to a published protocol. Actin was included as a loading control.

[4] = test system: programmed death-ligand 1 (PD-L1); test: Western blot of protein expression in BTC cells; assay type: cell-based; settings: 48 hours
Description: as §1

In the case of `Cn1cnc2c(F)c(Nc3ccc(Br)cc3F)c(C(=O)NOCCO)cc21` [binimetinib, 6-(4-bromo-2-fluorophenylamino)-7-fluoro-3-methyl-3H-benzoimidazole-5-carboxylic acid (2-hydroxyethoxy)-amide], the “thymidylate synthase (TS) expression” value [1] is listed as “downregulated”, the DCR [2] is listed as 51% and the ORR [2] is listed as 8%. The OS [2] was 4.8 months, the PFS [2] was 2.1 months and the cell viability [3] was “significant decreases in cell viability”.
With `O=c1[nH]cc(F)c(=O)[nH]1` [5-FU, 5-fluorouracil] the PD-L1 expression [4] was “induced PD-L1 expression” and the “thymidylate synthase (TS) expression” value [1] was “upregulated”.
